Measurements as given in US11099176B2 (priority 2015, dated 2021).
Read-outs that look alike come from different tables or passages of the source.

Assays:
[1] = tested on: Anaeromyxobacter dehalogenans adLacBP9, YP_466099.1, SEQ ID NO: 9 (expressed form SEQ ID NO: 23); assay: Lactate binding by thermal stability shift and labeled conjugate; details: thermostability vs ligand concentration; fluorescence response of labeled conjugate
Text: (§1) These experiments comprise four successive steps: • 1. Synthetic gene construction. The amino acid sequence of the homology leads are back translated into DNA sequences. These are optimized for directing heterologous cytoplasmic expression of the protein homologues in E. coli, using either the OrfOpt or OrfMorph programs. These programs predict mRNA sequences that direct high-level protein expression in E. coli. The predicted gene sequences are assembled de novo from synthetic oligonucleotides. • 2. Heterologous protein expression of the homologues in E. coli. Plasmids carrying the synthetic expression constructs (see above) were transformed into KRX competent cells (Promega). Protein production was induced in bacterial cultures of these cultures. • 3. Purification of successfully expressed protein using immobilized metal affinity chromatography. • 4.
(§2) The thermal stability of purified LacBP candidate proteins was determined by measuring the temperature-dependence of the fluorescence signal of an extrinsically added dye, SYPRO, using a Roche LightCycler (Layton and Hellinga, 2010, Biochemistry, 49, 10831-41). The total fluorescence intensity, S, is given by S=βFfF+βUfU 11 where fF and fU are the fractions of protein in the folded and unfolded states, respectively, and βF and βUthe fluorescence baselines of these two states. To get the fractions of the two states, we have
(§3) To obtain the temperature dependence of the binding reaction, the Kd values of all the individually determined isotherms were fit the Gibbs-Hemholtz equation (Layton and Hellinga, 2010, Biochemistry, 49, 10831-41): […]

[2] = target: Pseudomonas stuztzeri psLacBP11, YP_006522676.1, SEQ ID NO: 11 (expressed form SEQ ID NO: 25) (Stutzerimonas nitrititolerans, UniProt A0ABX9V4I2); assay: as above; details: thermostability vs ligand concentration; fluorescence response of labeled conjugate
Pseudomonas stuztzeri psLacBP11, YP_006522676.1, SEQ ID NO: 11 (expressed form SEQ ID NO: 25), sequence (A0ABX9V4I2 entry or part of it): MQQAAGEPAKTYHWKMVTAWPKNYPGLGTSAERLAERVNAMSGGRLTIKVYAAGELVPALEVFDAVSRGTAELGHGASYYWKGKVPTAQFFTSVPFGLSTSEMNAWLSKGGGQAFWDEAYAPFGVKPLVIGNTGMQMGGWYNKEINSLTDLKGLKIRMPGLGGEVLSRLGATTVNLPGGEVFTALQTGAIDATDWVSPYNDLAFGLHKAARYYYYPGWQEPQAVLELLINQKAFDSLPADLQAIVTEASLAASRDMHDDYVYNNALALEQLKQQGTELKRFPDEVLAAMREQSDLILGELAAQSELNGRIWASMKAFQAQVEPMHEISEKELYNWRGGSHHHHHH
Text: as §1, §2, §3

[3] = target: T1, Flexistipes sinusarabici fsLacBP13, YP_004603455.1, SEQ ID NO: 13 (expressed form SEQ ID NO: 27) (Flexistipes sinusarabici, UniProt F8E724); assay: as above; details: thermostability vs ligand concentration; fluorescence response of labeled conjugate
T1 construct: thermal shift
T1 sequence (F8E724 entry or part of it): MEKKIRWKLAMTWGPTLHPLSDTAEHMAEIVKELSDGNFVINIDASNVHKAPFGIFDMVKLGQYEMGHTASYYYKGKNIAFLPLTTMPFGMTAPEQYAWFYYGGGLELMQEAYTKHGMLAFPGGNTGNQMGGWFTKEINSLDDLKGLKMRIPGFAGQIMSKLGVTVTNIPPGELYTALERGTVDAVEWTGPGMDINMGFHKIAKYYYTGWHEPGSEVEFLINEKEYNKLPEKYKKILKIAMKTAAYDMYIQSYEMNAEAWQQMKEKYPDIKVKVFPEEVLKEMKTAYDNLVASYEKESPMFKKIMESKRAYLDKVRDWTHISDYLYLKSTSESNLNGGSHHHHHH
Text: as §1, §2, §3

[4] = target: Marinobacter sp. msLacBP6 variant 187C, P150S, SEQ ID NO: 55, Badan conjugate; assay: Fluorescence titration of conjugate (affinity tuning); assay type: binding; details: read-out: trueKd (lactate); monochromatic, 528 nm
[5] = target: Marinobacter sp. msLacBP6 variant Y187C, C-terminal βZif fusion, SEQ ID NO: 61, Acrylodan and βZif 5IAF (Fluorescein) conjugate; assay: Fluorescence titration of doubly labeled conjugate (ngmFRET); assay type: binding
Text: (§4) We tested whether non-geometrically modulated fluorescence energy transfer (ngmFRET) effects in doubly labeled proteins could improve ratiometric signaling. To this end, we fused a small, disulfide-containing domain, βZif (Smith et al., 2005, Protein Sci, 14, 64-73) to the C-terminus of msLacBP6 187C (Table 5). This arrangement enables independent, site-specific labeling with two different, thiol-reactive fluorophores by first reacting at the unprotected thiol in the msLacBP6, followed by a reduction of the […] disulfide to deprotect and label this second site with a second fluorophore. […] Indirectly responsive partners are selected according to their excitation and emission characteristics such that energy transfer is established between the two fluorophores. […] Mechanisms for non-geometrically modulated FRET (ngmFRET) effects are detailed in Materials and Methods and PCT International Patent Application No. PCT/US 16/62958, filed Nov. 19, 2016, the entire content of which is incorporated herein by reference.
(§5) In the Badan conjugates, the ngmFRET coupling was so strong that all the donor excited state energy was transferred to the acceptor, and the signal was converted from a dichromatic to a monochromatic response. In the Acrylodan conjugates, an improvement in the dichromatic signal was observed (FIG. 7).
(§6) Temperatures were advanced in 1K steps. […] Under these experimental photobleaching was not observed.

[6] = target: Marinobacter sp. msLacBP6 variant Y187C, C-terminal βZif fusion, SEQ ID NO: 61, Acrylodan and βZif Alexa532 conjugate; assay: as above; assay type: binding
Text: as §4, §5, §6

[7] = tested on: Anaeromyxobacter dehalogenans adLacBP9 variant F191C, SEQ ID NO: 44, Badan conjugate; assay: Fluorescence titration of conjugate; assay type: binding; set-up: key: nb: no binding
Procedure: (§7) 12-, 24-, or 48-point logarithmic titration series were prepared on a Tecan Freedom liquid-handling robot, using an in-house program, ‘TitrationPlate’, that compiles an abstract description of a multi-component titration series into machine instructions for operating the robot. Temperature-dependent fluorescence emission intensities of 20 μL aliquots, each containing 10 μM protein, were measured in 384-well microtiter plates in a LightCycler 480 II (Roche) using excitation and emission wavelengths available for this instrument that most closely matched the optical characteristics of the fluorescent conjugate. Temperatures were advanced in 1K steps. At each temperature, data was collected at 1-second intervals for 60 seconds at which point the signal had relaxed to a steady value associated with the new temperature. […] The in-house program ‘TitrationMeltPlate’ was used to convert these observations into time-independent datasets that record fluorescence as a function of temperature for each well and associate wells with their concentration of titrant and additive. Management tools were developed to maintain a database of titrations and their analyses.
(§8) Ligand- and wavelength-dependent emission intensities were recorded on a Nanodrop3300 (Thermo Scientific) at room temperature. Using the LED closest to the optimal excitation wavelength of the fluorophore (UV, 365 nm; blue, 470 nm; ‘white’, 460-550 nm).
(§9) Monochromatic emission intensities Iλ (these intensities correspond to a bandpass intensity, recorded either with a physical filter in the case of the Roche LightCycler, or by integrating in the interval λ−δ, λ+δ in the case of an emission spectrum), were fit to Iλ=^apoβλ(1−ytrue)+^satβλytrue 1 where ^apoβλ and ^satβλ are the fluorescence baselines associated with the ligand-free and ligand-bound states of the protein, respectively, and ytrue the fractional saturation of the protein (Layton and Hellinga, 2010, Biochemistry, 49, 10831-41). Baseline functions can be constant, linear, or a second-order polynomial.

[8] = tested on: Anaeromyxobacter dehalogenans adLacBP9 variant F191C, SEQ ID NO: 44, Acrylodan conjugate; assay: Fluorescence titration of conjugate; assay type: binding; set-up: key: nb: no binding
Procedure: as §7, §8, §9

[9] = target: Marinobacter sp. msLacBP6 variant V188C, SEQ ID NO: 39, Badan conjugate; assay: Fluorescence titration of conjugate; assay type: binding; details: read-out: trueKd (lactate); monochromatic, 513 nm
[10] = target: Marinobacter sp. msLacBP6 variant 187C, P150S, SEQ ID NO: 55, Acrylodan conjugate; assay: Fluorescence titration of conjugate (affinity tuning); assay type: binding; details: read-out: trueKd (lactate); monochromatic, 463 nm

How did the “Lactate Binding” value [1] turn out when C[C@H](O)C(=O)O [lactate] was run?
The value was “weak^f,g”.

And the “Lactate Binding” value [2]?
Its value is “weak^f,g”.

And the “Lactate Binding” value [3]?
The value was “weak^f,g”.

What about the Kd [4] of the same compound?
Its Kd is 14400 µM.

And the Kd ([5]; read-out: appKd (lactate), λ1 452, λ2 520 nm)?
Its Kd is 300 µM.

And the Kd ([5]; read-out: trueKd (lactate), λ1 452, λ2 520 nm)?
Its Kd is 300 µM.

And the Kd ([6]; read-out: appKd (lactate), λ1 452, λ2 550 nm)?
The Kd was 400 µM.

And the Kd ([6]; read-out: trueKd (lactate), λ1 452, λ2 550 nm)?
The Kd was 300 µM.

And the “appKd (lactate)” value [7]?
The value was “nb”.

What about the “trueKd (lactate)” value [7] of the same compound?
The value was “nb”.

What about the “appKd (lactate)” value [8] of the same compound?
Its value is “nb”.

What about the “trueKd (lactate)” value [8] of the same compound?
The value was “nb”.

What about the Kd [9] of the same compound?
Its Kd is 400 µM.

And the Kd [10]?
Its Kd is 24000 µM.
